Values of other authors in patent US20230067378A1, “COMPOSITIONS AND METHODS FOR THE TREATMENT OF ESTROGEN-DEPENDENT DISORDERS” (ObsEva S.A., priority 2018, published 2023).

Settings: in vivo; cited from earlier work

For `COc1cccc(-c2c(C)n(Cc3c(F)cccc3C(F)(F)F)c(=O)n(C[C@H](NCCCC(=O)O)c3ccccc3)c2=O)c1F` [Elagolix, sodium 4-({(1R)-2-[5-(2-fluoro-3-methoxyphenyl)-3-{[2-fluoro-6-(trifluoromethyl)phenyl]methyl}-4-methyl-2,6-dioxo-3,6-dihydropyrimidin-1(2H)-yl]-1-phenylethyl}amino)butanoate], the half-life is listed as 2 to 6 h.

In the case of `CONC(=O)Nc1ccc(-c2sc3c(c2CN(C)C)c(=O)n(-c2ccc(OC)nn2)c(=O)n3Cc2c(F)cccc2F)cc1` [relugolix, N-(4-(1-(2,6-difluorobenzyl)-5-((dimethylamino)methyl)-3-(6-methoxy-3-pyridazinyl)-2,4-dioxo-1,2,3,4-tetrahydrothieno[2,3-d]pyrimidin-6-yl)phenyl)-N′-methoxyurea], the half-life is listed as 37 to 42 h.
